In US20060269924A1, “Modulation of telomere-initiated cell signaling” (TRUSTEES OF BOSTON UNIVERSITY, priority 2003, published 2006):
{P} = phosphate

Key:
fibroblasts = assay: Degradation of the telomere 3′ overhang in fibroblasts; format: cell-based; conditions: up to 1 week (data not shown)
Jurkat cells = assay: FACS analysis of propidium iodide stained Jurkat cells (cell cycle, sub-G0/G1 apoptosis); format: cell-based, human
Method: FIGS. 1A-1H show FACS analysis of propidium iodide stained Jurkat cells (immortalized T lymphocytes), treated with diluent (FIGS. 1A and 1E); 40 μM 11mer-1 pGTTAGGGTTAG (SEQ ID NO: 2) (FIGS. 1B and 1F); 40 μM 11mer-2 pCTAACCCTAAC (SEQ ID NO: 3) (FIGS. 1C and […]); 40 μM 11mer-3 pGATCGATCGAT (SEQ ID NO: 4) (FIGS. 1D and 1H). Jurkat cells were treated with the stated reagents for 48 hours before analysis (FIGS. 1A-1D) or 72 hours (FIGS. 1E-1H).
FIGS. 2A-2F are profiles showing the results of fluorescence activated cell sorting, for the following additions to the cells: FIG. 2A, diluent; FIG. 2B, 0.4 μM 11mer-1; FIG. 2C, 0.4 μM 11mer-1-S; FIG. 2D, diluent; FIG. 2E, 40 μM 11mer-1; FIG. 2F, 40 μM 11 mer-1-S.
Oligonucleotides homologous to the telomere overhang repeat sequence (TTAGGG; SEQ ID NO: 1), sequence (11mer-1: pGTTAGGGTTAG; SEQ ID NO: 2), complementary to this sequence (11mer-2: pCTAACCCTAAC; SEQ ID NO: 3) and unrelated to the telomere sequence (11mer-3: pGATCGATCGAT; SEQ ID NO: 4) were added to cultures of Jurkat cells, a line of human T cells reported to undergo apoptosis in response to telomere disruption. Within′ 48 hours, 50% of the cells treated with 40 μM of SEQ ID NO: 5 had accumulated in the S phase, compared to 25-30% for control cells (p<0.0003, non-paired t-test; see FIGS. 1A-1D), and by 72 hours, 13% of these cells were apoptotic as determined by a sub-G0/G1 DNA content, compared to 2-3% of controls (p<0.007, non-paired t-test; see FIGS. 1E-1H). At 96 hours, 20±3% of the 11mer-1 treated cells were apoptotic compared with 3-5% of controls (p<0.0001, non-paired t-test). To exclude preferential uptake of the 11mer-1 as an explanation of its singular effects, Jurkat cells were treated with oligonucleotides labeled on the 3′ end with fluorescein phosphoramidite, then subjected to confocal-microscopy and FACS analysis. The fluorescence intensity of the cells was the same after all treatments at 4 hours and 24 hours.
Cultures of Jurkat human T cells were treated with either diluent, 11mer-1 ([…]) or the phosphorothioate 11mer-1 (11mer-1-S) for 96 hours, then collected and processed for FACS analysis. Two concentrations of the oligonucleotides were tested, 0.4 μM (FIGS. 2A-2C) and 40 μM (FIGS. 2D-2F).

**Q.** Which “degradation of the telomere 3′ overhang” value (fibroblasts) does the source give for “pGTTAGGGTTAG (DNA, 5' {P}, backbone not given here; listed as Homo sapiens) [Oligonucleotide 11mer-1]” here?
**A.** does not result in degradation

**Q.** What about the “effect on exponentially growing cell cycle profile” value (Jurkat cells; 0.4 μM, 96 hours) of the same substance?
**A.** neither of the oligonucleotides affected

**Q.** And the “cells accumulated in the S phase” value (Jurkat cells; 40 μM, 48 hours)?
**A.** 50%

**Q.** And the “apoptotic cells (sub-G0/G1 DNA content)” value (Jurkat cells; 40 μM, 72 hours)?
**A.** 13%

**Q.** What about the “apoptosis (sub-G0/G1 peak)” value (Jurkat cells; 40 μM, 96 hours) of the same substance?
**A.** induced extensive apoptosis

**Q.** And the apoptotic cells (Jurkat cells; 96 hours)?
**A.** 20±3%
